Patent US20080175872A1, “Controlled Release Dosage Form Containing Lercanidipine and a Performance-enhancing Acid” (OSMOTICA CORP., priority 2006, published 2008)
Values joined by “and” are separate entries in the source; they are usually repeats but may differ in a detail not shown here. Equal values may be shown once.

Experiments:
[1] = cited from earlier work
[2] = Stability of lercanidipine HCl polymorph II alone or 1/1 with organic acid, impurities by HPLC; format: physicochemical
Protocol: Analytical testing of the different samples was done by HPLC, column RP18, 300×3.9 mm ID, particle size 4 μm, in acetonitrile-0.15 M sodium perchlorate buffer, pH 3.0, at a flow rate of 1.3 ml/min, at 30° C., detector UV 240 nm. In all cases impurities were reported as % of the area of the impurity peak referred to the area of the main peak (a/a). The lercanidipine is the lercanidipine HCl polymorph II. […] The lercanidipine is the lercanidipine HCl polymorph II.

[3] = oral administration of an immediate release form; cited from earlier work
[4] = 50° C., 1.5 month, closed vials

Impurity 3 ([2]; 5° C. (reference condition)): 0.18 % a/a and 0.27 % a/a | Impurity B ([2]; 5° C. (reference condition)): 0.02 % a/a and 0.01 % a/a | Maximum unknown impurities ([2]; 5° C. (reference condition)): 0.04 % a/a | Impurity 3 ([2]; 50° C. + 75% RH): 0.28 % a/a and 0.16 % a/a | Impurity B ([2]; 50° C. + 75% RH): 0.01 % a/a | Maximum unknown impurities ([2]; 50° C. + 75% RH): 0.05 % a/a and 0.04 % a/a | Total impurities ([2]; 50° C. + 75% RH): 0.43 % a/a and 0.34 % a/a | Impurity 3 [2, 4]: 0.22 % a/a and 0.30 % a/a | Impurity B [2, 4]: 0.01 % a/a | Maximum unknown impurities [2, 4]: 0.03 % a/a and 0.04 % a/a | Total impurities [2, 4]: 0.31 % a/a and 0.47 % a/a
SMILES: COC(=O)C1=C(C)NC(C)=C(C(=O)OC(C)(C)CN(C)CCC(c2ccccc2)c2ccccc2)C1c1cccc([N+](=O)[O-])c1 (centres unmarked) [Lercanidipine, methyl 1,1,N-trimethyl-N-(3,3-diphenylpropyl)-2-aminoethyl 1,4-dihydro-2,6-dimethyl-4-(3-nitrophenyl)pyridine-3,5-dicarboxylate]
permeability classification as defined by the FDA [1]: low permeable drug | solubility in gastrointestinal pH range ([1]; pH range of 1 to 8): essentially insoluble | peak plasma level (Tmax) [3]: 1 to 3 h
